Results as given in patent US7605175B2, “Inhibitors of cyclin-dependent kinases, compositions and uses related thereto” (GPC Biotech AG, priority 2001, dated 2009).
Where two headings read alike, the source gives them in different places.

Tests used:
[1] = biological target: T1, Cdk4/cyclin D1 (Homo sapiens, UniProt P11802); assay: Biochemical kinase assay Cdk4/cyclin D1; details: Table 6
T1 construct: made in house; host or cells: Sf9 insect cells
In short: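 Sf9-expressed Cdk/cyclin heterodimers phosphorylate GST-Rb (residues 379–928, 40 μg) with 50 μM ATP plus [γ-33P]ATP, pH 7.5, 10% DMSO, 15 min at 30 °C. Compounds 1 nM–10 μM. 33P captured on glutathione-sepharose and scintillation-counted; activity relative to DMSO control after EDTA-background subtraction.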

[2] = system: adriamycin resistant cell line (ADR-res); assay: NCI panel (SRB), adriamycin resistant cell line; type: cell-based; details: Homo sapiens
Excerpt: The evaluation of compounds at the National Cancer Institute in their panel of 60 cell lines provides a wealth of information regarding efficacy in a wide range of tumor types and genetic backgrounds. Included within this panel are cell lines derived from leukemia, melanoma and cancers of the lung, colon, brain, ovary, breast, prostate and kidney. Use of this panel provides a measure of the efficacy of compounds in cells with alterations in many genes that are associated with neoplastic transformation including p53 and Her2/Neu as well as those involved in metabolism and those which confer multi-drug resistance. The data generated in these cell lines with the protocol described below can be used to evaluate the activity of compounds.
Cells were grown in RPMI-1640 10% FCS and plated in 96 well micro-titer plates at densities ranging from 5,000 to 40,000 cells/well. The plates were incubated for 24 hours at 37° C., 5% CO2 for 24 hours. […]
The effect of the compound on cellular viability was determined with the Sulforhodamine B (SRB) assay, which measures total protein. […] The bound stain was solubilized with 10 mM trizma base and the absorbance was read on a plate reader at […].

[3] = system: HCT-116 cells; assay: BrdU incorporation assay; type: cell-based; details: Homo sapiens, read-out: Brd U, concentration that inhibits BrdU incorporation by 50%
In short: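 HCT-116 cells were exposed to compound, then analysed at 24, 48 and 72 h; 10 μM BrdU (final) was added for 16-18 h at 37° C. After fixation, permeabilisation and DNase treatment, BrdU incorporation was read by flow cytometry; values are compound concentrations (μM) giving 50% inhibition.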

T1 sequence (P11802 whole entry, species assumed): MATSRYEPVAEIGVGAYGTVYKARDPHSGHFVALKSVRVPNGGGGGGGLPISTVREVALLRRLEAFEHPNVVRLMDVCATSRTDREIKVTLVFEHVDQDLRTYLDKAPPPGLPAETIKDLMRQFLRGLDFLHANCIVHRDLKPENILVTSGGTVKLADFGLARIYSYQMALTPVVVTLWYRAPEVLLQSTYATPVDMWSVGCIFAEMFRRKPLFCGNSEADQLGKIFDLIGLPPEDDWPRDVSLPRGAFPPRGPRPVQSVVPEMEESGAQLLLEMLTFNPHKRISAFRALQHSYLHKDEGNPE
T1 sequence (P24385 whole entry partner, species assumed): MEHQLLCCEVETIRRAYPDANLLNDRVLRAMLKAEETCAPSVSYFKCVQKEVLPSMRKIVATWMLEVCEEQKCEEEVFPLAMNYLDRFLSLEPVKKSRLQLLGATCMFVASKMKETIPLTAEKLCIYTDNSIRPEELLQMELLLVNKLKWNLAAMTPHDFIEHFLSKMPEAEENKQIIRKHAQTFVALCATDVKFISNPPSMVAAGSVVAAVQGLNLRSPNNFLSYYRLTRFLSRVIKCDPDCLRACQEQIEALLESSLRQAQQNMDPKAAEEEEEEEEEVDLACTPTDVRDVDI

Compound | IC50 [1] [nM] | IC50 [2] [nM] | IC50 ([3]; HCT-116, 24 h) [nM] | IC50 ([3]; HCT-116, 48 h) [nM]
CC(C)N1CCN(C(=O)COc2ccc(-c3[nH]nc4c3C(=O)c3c(NC(=O)NN5CCOCC5)cccc3-4)cc2)CC1.Cl [Compound A37] | < 100 | – | – | –
CC(C)c1nn(-c2c(Cl)cccc2Cl)c2nc(Cc3ccc(O)c(CN4CCN(C(C)C)CC4)c3)[nH]c(=O)c12 [Compound C] | – | < 100 | < 100 | < 100
